Laboratory results: patent US5962476A, “Azolylamine derivative” (Kaken Pharmaceutical Co., Ltd., priority 1993, dated 1999)
Converted amounts (≈) assume the structure as drawn. Like-named read-outs stand apart in the source and are kept apart here.

Columns and labels:
[1] = test system: Cryptococcus neoformans NI-7496; assay: Minimum inhibitory concentration (MIC), agar dilution method on Sabouraud's agar medium, 30° C. for 48 hours; type: cell-based; conditions: read-out: Minimum inhibitory concentration (MIC), Cr.n.
Description: (§1) MIC of a test compound against Candida albicans ATCC-10259 was determined by the both dilution method employing synthetic amino acid medium (SAAMF medium). Namely, to 3 μl of twofold dilution series of solution containing the test compound was added 300 μl of SAAMF medium inoculated with the fungus at the final concentration of 1×10^3 cells/ml. […] MIC of a test compound against the fungus other than the Candida albicans was determined by the agar dilution method employing Sabouraud's agar medium. That is to say, a test compound was dissolved in dimethyl sulfoxide to give a solution containing the test compound in the concentration of 10 mg/ml. Further, thus obtained solution was diluted with dimethyl sulfoxide according to twofold dilution series and 0.1 ml of the diluted solution was taken into a sterile shale. After 9.9 ml of Sabouraud's agar medium was added thereto, the mixture was sufficiently mixed to give a drug-added plate. The plate was inoculated with 5 μl of a fungus suspension at 10^6 cells/ml by Microplanter (Sakuma Seisakusho Co., Ltd.). As to Aspergillus fumigatus NI-5561 and Cryptococcus neoformans NI-7496, a plate was incubated at 30° C. for 48 hours. As to Trichophyton mentagrophytes KD-01, a plate was incubated at 30° C. for 7 days. […] Clotrimazole and fluconazole were used as comparative control compounds.
Cryptococcus neoformans NI-7496

[2] = test system: Trichophyton mentagrophytes KD-01; assay: Minimum inhibitory concentration (MIC), agar dilution method on Sabouraud's agar medium, 30° C. for 7 days; type: cell-based; conditions: KD01, 168 h, read-out: Minimum inhibitory concentration (MIC), T.m.
Description: as §1, with “compounds. |Trichophyton mentagrophytes KD-01 | T. m.” for “compounds.”

[3] = test system: Candida albicans ATCC-10259; assay: Minimum inhibitory concentration (MIC), dilution method in SAAMF medium, 35° C. for 2 days; type: cell-based; conditions: ATCC10259, 48 h, read-out: Minimum inhibitory concentration (MIC), C.a.
Description: as §1
Candida albicans ATCC 10259

[4] = test system: Aspergillus fumigatus NI-5561; assay: Minimum inhibitory concentration (MIC), agar dilution method on Sabouraud's agar medium, 30° C. for 48 hours; type: cell-based; conditions: read-out: Minimum inhibitory concentration (MIC), A.f.
Description: as §1
Aspergillus fumigatus NI-5561

[5] = test system: Candida albicans KC-36; assay: Therapeutic effect on cutaneous candidiasis in guinea pigs; type: in vivo, male Hartley guinea pig; conditions: guinea pig, topical 1% solution, 0.2 ml once a day for 3 days from 2 days after infection
Description: Inhibitory ratio (%={1-(number of tissue specimens found fungi/total number
of tissue specimens)}×100
In the back of male Hartley guinea pig, weighing 400 to 500 g, a portion of skin was unhaired, to which […] of spore suspension of Candida albicans KC-36 (5×10^7 cells/ml) was dropped and the skin surface was infected by rubbing it with a glass rod. To facilitate the infection, prednisolone was subcutaneously administered at 30 mg/kg on one day before the infection, the day of infection and 4 days after the infection. […] The animal was killed by etherization 2 days after the last treatment and 10 tissue specimens of skin were cut out from the infected portion and incubated on CANDIDA GS AGAR `EIKEN` (EIKEN CHEMICAL CO., LTD. ) for 7 days. The inhibitory ratio was calculated according to the above-mentioned formula. Clotrimazole was employed as a control compound.

[6] = test system: Trichophyton mentagrophytes KD-04; assay: Effect on trichophytosis in guinea pigs; type: in vivo, male Hartley guinea pig; conditions: guinea pig, topical 1% solution, 0.2 ml once a day for 10 days from 3 days after infection
Description: In the back of male Hartley guinea pig, weighing 400 to 500 g, a portion of skin was unhaired and rubbed lightly with sandpaper, to which 0.1 ml of microconidium suspension of Trichophyton mentagrophytes KD-04 (10^7 cells/ml) was dropped and the skin surface was infected by rubbing it with a glass rod. […] The animal was killed by etherization 2 days after the last treatment and 10 tissue specimens of skin were cut out from the infected portion and incubated on Sabouraud's agar medium for 7 days. Inhibitory ratio was calculated according to the following formula: […] of tissue specimens)}×100 The results are shown in Table 2. Clotrimazole was used as a control compound.

[7] = Acute toxicity test for mice; type: in vivo, male ICR mouse
Description: The compound of Example 1 was dissolved in polyethylene glycol 200 and the resultant solution was applied to a male ICR mouse of 5 weeks old by oral or subcutaneous administration.

[8] = NI7496, Cryptococcus neoformans NI-7496, Sabouraud's agar, 30° C., 48 hours
[9] = Candida albicans ATCC 10259, SAAMF medium, 35° C., 2 days
[10] = NI5561, Aspergillus fumigatus NI-5561, Sabouraud's agar, 30° C., 48 hours
[11] = Cryptococcus neoformans, NI7496, 48 h
[12] = Aspergillus fumigatus, NI5561, 48 h

Molecule `C=C1CCN([C@H](C)[C@](O)(Cn2cncn2)c2ccc(F)cc2F)CC1` (racemic) [Example 2, (2RS,3RS)-2-(2,4-difluorophenyl)-3-(4-methylenepiperidino)-1-(1H-1,2,4-triazol-1-yl)butan-2-ol] has an MIC [1, 8] of 0.1 µg/mL (≈ 0.287 µM), an MIC [2] of 0.39 µg/mL (≈ 1.12 µM) and an MIC [3, 9] of less than 0.025 µg/mL. The MIC [4, 10] was 0.1 µg/mL (≈ 0.287 µM).

Work on `C=C1CCN([C@H](C)[C@](O)(Cn2ccnc2)c2ccc(F)cc2F)CC1` (racemic) [Example 5, (2RS,3RS)-2-(2,4-difluorophenyl)-3-(4-methylenepiperidino)-1-(1H-imidazol-1-yl)butan-2-ol] yielded an MIC [1, 8] of 0.025 µg/mL (≈ 0.072 µM), an MIC [2] of 0.1 µg/mL (≈ 0.288 µM) and an MIC [3, 9] of less than 0.025 µg/mL. For the same molecule, the MIC [4, 10] was 0.05 µg/mL (≈ 0.144 µM).

Work on `CC=C1CCN([C@H](C)[C@](O)(Cn2cncn2)c2ccc(F)cc2F)CC1` (racemic) [Example 8, (2RS,3RS)-2-(2,4-difluorophenyl)-3-(4-ethylidenepiperidino)-1-(1H-1,2,4-triazol-1-yl)butan-2-ol] yielded an MIC [1, 8] of 0.1 µg/mL (≈ 0.276 µM), an MIC [2] of 0.78 µg/mL (≈ 2.15 µM) and an MIC [3, 9] of less than 0.025 µg/mL. It also gave an MIC [4, 10] of 0.2 µg/mL (≈ 0.552 µM).

Work on `C[C@@H](N1CCC(=Cc2ccccc2)CC1)[C@](O)(Cn1cncn1)c1ccc(F)cc1F` (racemic) [Example 10, (2RS,3RS)-2-(2,4-difluorophenyl)-3-(4-benzylidenepiperidino)-1-(1H-1,2,4-triazol-1-yl)butan-2-ol] yielded an MIC [1, 8] of 0.025 µg/mL (≈ 0.0589 µM), an MIC [2] of 0.39 µg/mL (≈ 0.919 µM) and an MIC [3, 9] of less than 0.025 µg/mL. For the same molecule, the MIC [4, 10] was 0.1 µg/mL (≈ 0.236 µM).

For `Clc1ccccc1C(c1ccccc1)(c1ccccc1)n1ccnc1` [Clotrimazole, reference compound], the MIC [1, 11] was 0.2 µg/mL (≈ 0.58 µM), the MIC [2] was 0.39 µg/mL (≈ 1.13 µM) and the MIC ([3]; Candida albicans) was 0.025 µg/mL (≈ 0.0725 µM). For the same molecule, the Inhibitory ratio [5] was 96%, the Inhibitory ratio [6] was 20% and the MIC [4, 12] was 0.78 µg/mL (≈ 2.26 µM).

In the case of `C=C1CCN([C@H](C)[C@](O)(Cn2cncn2)c2ccc(F)cc2F)CC1` [Example 1, (2R,3R)-2-(2,4-difluorophenyl)-3-(4-methylenepiperidino)-1-(1H-1,2,4-triazol-1-yl)butan-2-ol], the MIC [1, 8] is reported as 0.05 µg/mL (≈ 0.144 µM), the “Number of died mice/number of tested mice” value ([7]; oral, 500 mg/kg) is reported as 0/3 and the “Number of died mice/number of tested mice” value ([7]; oral, 1000 mg/kg) is reported as 0/3. For the same molecule, the “Number of died mice/number of tested mice” value ([7]; subcutaneous, 125 mg/kg) was 0/3, the “Number of died mice/number of tested mice” value ([7]; subcutaneous, 250 mg/kg) was 0/3 and the “Number of died mice/number of tested mice” value ([7]; subcutaneous, 500 mg/kg) was 0/3. The “Number of died mice/number of tested mice” value ([7]; subcutaneous, 1000 mg/kg) was 0/3, the MIC [2] was 0.39 µg/mL (≈ 1.12 µM) and the MIC [3, 9] was less than 0.025 µg/mL. The Inhibitory ratio [5] was 98%, the Inhibitory ratio [6] was 98% and the MIC [4, 10] was 0.05 µg/mL (≈ 0.144 µM).

`C=C1CCN([C@@H](C)[C@@](O)(Cn2cncn2)c2ccc(F)cc2F)CC1` [Example 3, (2S,3S)-2-(2,4-difluorophenyl)-3-(4-methylenepiperidino)-1-(1H-1,2,4-triazol-1-yl)butan-2-ol] showed an MIC [1, 8] of 0.78 µg/mL (≈ 2.24 µM), an MIC [2] of 50 µg/mL (≈ 144 µM) and an MIC [3, 9] of 0.39 µg/mL (≈ 1.12 µM). For the same molecule, the MIC [4, 10] was greater than 100 µg/mL.

For `C=C1CCN([C@H](C)[C@](O)(Cn2ccnc2)c2ccc(F)cc2F)CC1` [Example 4, (2R,3R)-2-(2,4-difluorophenyl)-3-(4-methylenepiperidino)-1-(1H-imidazol-1-yl)butan-2-ol], the MIC [1, 8] was less than 0.025 µg/mL, the MIC [2] was less than 0.025 µg/mL and the MIC [3, 9] was less than 0.025 µg/mL. For the same molecule, the MIC [4, 10] was 0.05 µg/mL (≈ 0.144 µM).

For `C=C1CCN([C@H](C)[C@](O)(Cn2cncn2)c2ccc(Cl)cc2)CC1` [Example 6, (2R,3R)-2-(4-chlorophenyl)-3-(4-methylenepiperidino)-1-(1H-1,2,4-triazol-1-yl)butan-2-ol], the MIC [1, 8] was 0.2 µg/mL (≈ 0.577 µM), the MIC [2] was 3.13 µg/mL (≈ 9.02 µM) and the MIC [3, 9] was less than 0.0125 µg/mL. For the same molecule, the MIC [4, 10] was 6.25 µg/mL (≈ 18 µM).

`C=C1CCN([C@H](C)[C@](O)(Cn2cncn2)c2ccc(Cl)cc2Cl)CC1` [Example 7, (2R,3R)-2-(2,4-dichlorophenyl)-3-(4-methylenepiperidino)-1-(1H-1,2,4-triazol-1-yl)butan-2-ol] gave an MIC [1, 8] of 0.05 µg/mL (≈ 0.131 µM), an MIC [2] of 0.39 µg/mL (≈ 1.02 µM) and an MIC [3, 9] of 0.025 µg/mL (≈ 0.0656 µM). For the same molecule, the MIC [4, 10] was 0.39 µg/mL (≈ 1.02 µM).

`C=CC=C1CCN([C@H](C)[C@](O)(Cn2cncn2)c2ccc(F)cc2F)CC1` [Example 12, (2R,3R)-2-(2,4-difluorophenyl)-3-(4-propenylidenepiperidino)-1-(1H-1,2,4-triazol-1-yl)butan-2-ol] showed an MIC [1, 8] of 0.1 µg/mL (≈ 0.267 µM), an MIC [2] of 0.78 µg/mL (≈ 2.08 µM) and an MIC [3, 9] of less than 0.025 µg/mL. The MIC [4, 10] was 0.2 µg/mL (≈ 0.534 µM).

In the case of `C=C1CCCN([C@H](C)[C@](O)(Cn2cncn2)c2ccc(F)cc2F)C1` [Example 13, (2R,3R)-2-(2,4-difluorophenyl)-3-(3-methylenepiperidino)-1-(1H-1,2,4-triazol-1-yl)butan-2-ol], the MIC [1, 8] is reported as 0.39 µg/mL (≈ 1.12 µM), the MIC [2] is reported as 1.56 µg/mL (≈ 4.48 µM) and the MIC [3, 9] is reported as 0.1 µg/mL (≈ 0.287 µM). For the same molecule, the MIC [4, 10] was 0.78 µg/mL (≈ 2.24 µM).

In the case of `C=C1CCN([C@H](C)[C@](O)(Cn2cncn2)c2ccc(F)cc2F)C1` [Example 14, (2R,3R)-2-(2,4-difluorophenyl)-3-(3-methylenepyrrolidino)-1-(1H-1,2,4-triazol-1-yl)butan-2-ol], the MIC [1, 8] is reported as 0.39 µg/mL (≈ 1.17 µM), the MIC [2] is reported as 0.78 µg/mL (≈ 2.33 µM) and the MIC [3, 9] is reported as less than 0.025 µg/mL. It also gave an MIC [4, 10] of 0.39 µg/mL (≈ 1.17 µM).

`OC(Cn1cncn1)(Cn1cncn1)c1ccc(F)cc1F` [Fluconazole, reference compound] showed an MIC [1, 11] of 12.5 µg/mL (≈ 40.8 µM), an MIC [2] greater than 100 µg/mL and an MIC ([3]; Candida albicans) of 0.39 µg/mL (≈ 1.27 µM). The MIC [4, 12] was greater than 100 µg/mL.
